# Measurements from patent US4704384A, “Aziridinyl quinone antitumor agents” (priority 1981, dated 1987).
# Several values for one entry are separate records, joined by “and”; a condition that tells them apart may be missing. Identical values can stand only once. Entries after “also recorded” stand apart in the source; their conditions may differ. Like-named read-outs stand apart in the source and are kept apart here.
# Columns and labels:
# [1] = reported; Europe / Japan; cited from earlier work
# lymphoid leukemia L1210 [2] = details: cited from earlier work; for activity in L1210: prior testing
# [3] = system: lymphocytic leukemia P388; type: in vivo, murine; details: for ILS: QD1-9, at OD; for OD: QD1-9, Table IX
# B16 melanocarcinoma = type: in vivo, murine; details: for OD: QD1-9, Table IX; for ILS: QD1-9, at OD, Table IX
# lymphoid leukemia L1210 [4] = type: in vivo, murine
# Text: (§1) A third IC tumor model, the ependymoblastoma system, was also studied. This system requires intracerebral implantation of a solid tumor fragment while the IC L1210 and IC P388 systems utilize IC inoculated ascites tumor fluid. All three use IP drug treatment however. […] Cures (survivors from the group of six mice on the last day of the experiment) are indicated.
# ependymoblastoma = type: in vivo, murine; details: for OD: QD1-5, Table X; for ILS: QD1-5, at OD; for ILS / animals alive per 6: Table X; for animals alive per 6: QD1-5, day 60, at OD; for survivors, EM: parentheses, per 6
# Text: ^c Ic tumor implantation, ip QD15 treatment schedule.
# as §1
# lymphoid leukemia L1210 [5] = details: for survivors, IP L1210: Table XI, parentheses, per 6
# Text: ^b Ip tumor implantation, ip QD19 treatment schedule.
# ^e ILS = [(treated survival + control survival) × 100%] - 100%
# The L1210, P388 and B16 test systems described in Table II utilize intraperitoneal (IP) tumor implantation and IP drug treatment while the Lewis lung system employs subcutaneous tumor implantation and IP treatment. All three CNS tumor models (Table III) use intracerebral (IC) tumor implantation and IP treatment.
# Aqueous saline solution (0.9%) was used as the drug vehicle. Normally, five doses were employed per experiment with the top dose chosen to produce toxicity. The lower doses were 50% of each preceeding dose.
# Consistent with NCI antitumor test protocols, intraperitoneal (IP) administration of the drug was employed with all five tumor systems investigated. Tumor implantation was IP in the systems designated IP leukemia L1210 and P388 as well as B16 melanoma. Intracerebral (IC) tumor implantation was utilized in the IC L1210 and ependymoblastoma tumor systems.
# [6] = Day 1 only (1 injection), Table VIII
# [7] = QD1-9 (9 injections), Table VIII
# [8] = QD1-9, day 30, at OD, Table VIII
smiles,measurement,setting,value
"COC(COC(N)=O)C1=C(N2CC2)C(=O)C(C)=C(N2CC2)C1=O (stereo not shown) [Compound 30, carbazilquinone]",clinical activity,[1],Clinical activity has been reported
NC1=C(Cl)C(=O)C(N)=C(Cl)C1=O [Compound 19],activity in L1210,lymphoid leukemia L1210 [2],inactive
"COC1=C(N2CC2)C(=O)C(OC)=C(N2CC2)C1=O [Compound 28, reference compound]",activity in L1210,lymphoid leukemia L1210 [2],intraperitoneal (IP) leukemia L1210 activity
"O=C1C(Cl)=C(N2CC2)C(=O)C(Cl)=C1N1CC1 [Compound 4, 2,5-dichloro-3,6-diaziridinyl-1,4-benzoquinone]",activity in L1210,lymphoid leukemia L1210 [2],inactive
"O=C1C=C(N2CC2)C(=O)C(N2CC2)=C1N1CC1 [Compound 29, Trenimon]",clinical activity,[1],Clinical activity has been reported
"CCNC1=C(N2CC2)C(=O)C(NCC)=C(N2CC2)C1=O [Compound 35, 2,5-DIAZIRIDINYL-3,6-BIS(ETHYLAMINO)-1,4-BENZOQUINONE]",ILS,[3]; Table IX,160% and 103%
same,OD,B16 melanocarcinoma,0.4 mg/kg/injection and 0.7 mg/kg/injection
same,ILS,B16 melanocarcinoma,26% and 24%
same,OD,"lymphoid leukemia L1210 [4]; QD1-9, Table X",3.0 mg/kg/injection
same,ILS,"lymphoid leukemia L1210 [4]; QD1-9, at OD, Table X",44% and 40%
same,activity in ependymoblastoma,ependymoblastoma,most active
same,OD,ependymoblastoma,1.5 mg/kg/injection
same,ILS,ependymoblastoma,218% and 187%
same,animals alive per 6,ependymoblastoma,2
same,"survivors, EM",ependymoblastoma; Table XI,2
same,activity in IP L1210,lymphoid leukemia L1210 [5],activity appears to peak
same,OD,lymphoid leukemia L1210 [5]; [6],1.5 mg/kg/injection
same,ILS,"lymphoid leukemia L1210 [5]; Day 1 only, at OD, Table VIII",68% and 54%
same,OD,"lymphoid leukemia L1210 [5]; Q4D (day 1,5,9), Table VIII",3.0 mg/kg/injection and 1.5 mg/kg/injection
same,ILS,"lymphoid leukemia L1210 [5]; Q4D, at OD, Table VIII",75% and 57%
same,OD,lymphoid leukemia L1210 [5]; [7],1.5 mg/kg/injection
same,ILS,"lymphoid leukemia L1210 [5]; QD1-9, at OD, Table VIII",112% and 91%
same,T-C,"lymphoid leukemia L1210 [5]; QD1-9, day 5, at OD, Table VIII",-3.3 grams
same,animals alive per 6,lymphoid leukemia L1210 [5]; [8],2 and 1
same,"survivors, IP L1210",lymphoid leukemia L1210 [5],2
"O=C1C(Cl)=C(Cl)C(=O)C(Cl)=C1Cl [chloranil, tetrachlorobenzoquinone, reference compound]",activity in L1210,lymphoid leukemia L1210 [2],inactive
NC(=O)CNC1=C(N2CC2)C(=O)C(NCC(N)=O)=C(N2CC2)C1=O [Compound 40],OD,[3],2.0 mg/kg/injection
same,ILS,[3]; Table IX,85% and 71%
same,ILS,B16 melanocarcinoma,37% and 22%
same,ILS,"lymphoid leukemia L1210 [4]; QD1-9, at OD, Table X",16%
same,OD,ependymoblastoma,2.0 mg/kg/injection and 1.0 mg/kg/injection
same,ILS,ependymoblastoma,64% and 50%
same,OD,lymphoid leukemia L1210 [5]; [6],10.0 mg/kg/injection
same,ILS,"lymphoid leukemia L1210 [5]; Day 1 only, at OD, Table VIII",21% and 15%
same,OD,"lymphoid leukemia L1210 [5]; Q4D (day 1,5,9), Table VIII",8.0 mg/kg/injection
same,OD,lymphoid leukemia L1210 [5]; [7],10.0 mg/kg/injection
same,ILS,"lymphoid leukemia L1210 [5]; QD1-9, at OD, Table VIII",92% and 91%
"CN(C)C1=C(N2CC2)C(=O)C(N(C)C)=C(N2CC2)C1=O [Compound 41, 2,5-DIAZIRIDINYL-3,6-BIS(DIMETHYLAMINO)-1,4-BENZOQUINONE]",OD,[3],1.0 mg/kg/injection and 0.5 mg/kg/injection
same,ILS,[3]; Table IX,74% and 37%
same,OD,B16 melanocarcinoma,0.2 mg/kg/injection
same,ILS,B16 melanocarcinoma,16% and 12%
same,activity in IC L1210,lymphoid leukemia L1210 [4],most active; also recorded: significant activity
same,OD,"lymphoid leukemia L1210 [4]; Q4D(1,5,9), Table X",3.0 mg/kg/injection
same,ILS,"lymphoid leukemia L1210 [4]; Q4D(1,5,9), at OD, Table X",72% and 56%
same,activity in ependymoblastoma,ependymoblastoma,among the most active materials
same,OD,ependymoblastoma,1.0 mg/kg/injection and 0.5 mg/kg/injection
same,ILS,ependymoblastoma,215% and 190%
same,animals alive per 6,ependymoblastoma,5 and 4
same,"survivors, EM",ependymoblastoma; Table XI,5
same,OD,lymphoid leukemia L1210 [5]; [6],1.5 mg/kg/injection
same,ILS,"lymphoid leukemia L1210 [5]; Day 1 only, at OD, Table VIII",21% and 15%
same,OD,"lymphoid leukemia L1210 [5]; Q4D (day 1,5,9), Table VIII",3.0 mg/kg/injection
same,ILS,"lymphoid leukemia L1210 [5]; Q4D, at OD, Table VIII",120% and 73%
same,animals alive per 6,"lymphoid leukemia L1210 [5]; Q4D, day 30, at OD, Table VIII",1
same,"survivors, IP L1210",lymphoid leukemia L1210 [5],1
"CC(=O)NC1=C(Cl)C(=O)C(NC(C)=O)=C(Cl)C1=O [Compound 20, 2,5-dichloro-3,5-acetylamino-1,4-benzoquinone]",activity in L1210,lymphoid leukemia L1210 [2],inactive
"COC1=C(Br)C(=O)C(OC)=C(Br)C1=O [Compound 14, 2,5-dibromo-3,6-dimethoxy-1,4-benzoquinone]",activity in L1210,lymphoid leukemia L1210 [2],inactive
O=C1C(NCC(O)CO)=C(N2CC2)C(=O)C(NCC(O)CO)=C1N1CC1 (stereo not shown) [Compound 39],activity in IP P388,[3],very active producing multiple cures
same,OD,[3],4.0 mg/kg/injection
same,ILS,[3]; Table IX,143%
same,animals alive per 6,"[3]; QD1-9, day 30, at OD, Table IX",6 and 4
same,"survivors, P388","[3]; Table XI, parentheses, per 6",6
same,activity in B16 melanoma,B16 melanocarcinoma,reproducibly active
same,OD,B16 melanocarcinoma,4.0 mg/kg/injection and 6.0 mg/kg/injection
same,ILS,B16 melanocarcinoma,50% and 42%
same,activity in IC L1210,lymphoid leukemia L1210 [4],marginal IC L1210 activity
same,OD,"lymphoid leukemia L1210 [4]; QD1-9, Table X",4.0 mg/kg/injection
same,ILS,"lymphoid leukemia L1210 [4]; QD1-9, at OD, Table X",43% and 41%
same,activity in ependymoblastoma,ependymoblastoma,moderate to good EM activity
same,ILS,ependymoblastoma,99% and 53%
same,animals alive per 6,ependymoblastoma,1
same,ILS (%) EM,"ependymoblastoma; Table XI, outstanding activity",99%
same,"survivors, EM",ependymoblastoma; Table XI,1
same,"survivors, EM",ependymoblastoma; repeat test,6
same,activity in IP L1210,lymphoid leukemia L1210 [5],Excellent activity; also recorded: produced cures; also recorded: probably the most active compound in the IP ascites systems
same,OD,lymphoid leukemia L1210 [5]; [6],4.0 mg/kg/injection and 2.0 mg/kg/injection
same,ILS,"lymphoid leukemia L1210 [5]; Day 1 only, at OD, Table VIII",89%
same,animals alive per 6,"lymphoid leukemia L1210 [5]; Day 1 only, day 30, at OD, Table VIII",4
same,OD,"lymphoid leukemia L1210 [5]; Q4D (day 1,5,9), Table VIII",4.0 mg/kg/injection and 8.0 mg/kg/injection
same,ILS,"lymphoid leukemia L1210 [5]; Q4D, at OD, Table VIII",90% and 79%
same,OD,lymphoid leukemia L1210 [5]; [7],4.0 mg/kg/injection and 2.0 mg/kg/injection
same,ILS,"lymphoid leukemia L1210 [5]; QD1-9, at OD, Table VIII",206%
same,"survivors, IP L1210",lymphoid leukemia L1210 [5],5
"CC(=O)NC1=C(N2CC2)C(=O)C(NC(C)=O)=C(N2CC2)C1=O [Compound 27, reference compound]",activity in L1210,lymphoid leukemia L1210 [2],intraperitoneal (IP) leukemia L1210 activity
"O=C1C(N2CC2)=C(N2CC2)C(=O)C(N2CC2)=C1N1CC1 [tetraaziridinyl derivative, reference compound]",ILS,"lymphoid leukemia L1210 [2]; L1210 leukemia, earlier evaluation",39%
CN(CCO)C1=C(N2CC2)C(=O)C(N(C)CCO)=C(N2CC2)C1=O [Compound 42],OD,[3],1.6 mg/kg/injection and 0.8 mg/kg/injection
same,ILS,[3]; Table IX,162%
same,activity in B16 melanoma,B16 melanocarcinoma,approached minimal reproducible activity
same,OD,B16 melanocarcinoma,0.8 mg/kg/injection
same,ILS,B16 melanocarcinoma,47% and 31%
same,OD,"lymphoid leukemia L1210 [4]; QD1-9, Table X",4.0 mg/kg/injection and 2.0 mg/kg/injection
same,ILS,"lymphoid leukemia L1210 [4]; QD1-9, at OD, Table X",45% and 32%
same,OD,ependymoblastoma,0.4 mg/kg/injection and 0.2 mg/kg/injection
same,ILS,ependymoblastoma,84% and 69%
same,ILS,"lymphoid leukemia L1210 [5]; Day 1 only, at OD, Table VIII",-5%
same,OD,"lymphoid leukemia L1210 [5]; Q4D (day 1,5,9), Table VIII",0.4 mg/kg/injection and 0.2 mg/kg/injection
same,OD,lymphoid leukemia L1210 [5]; [7],1.5 mg/kg/injection
same,ILS,"lymphoid leukemia L1210 [5]; QD1-9, at OD, Table VIII",114% and 111%
same,animals alive per 6,lymphoid leukemia L1210 [5]; [8],1
same,"survivors, IP L1210",lymphoid leukemia L1210 [5],1
